# Results from US20260306640A1, “TECHNOLOGIES TARGETING CELL STATES” (Auron Therapeutics, Inc., priority 2023, published 2026).
# Where two headings read alike, the source gives them in different places.
# Legend:
# NCI-H1048 cells = test: Cell growth inhibition, SCLC cell line NCI-H1048 (cell count, day 11); format: cell-based, human; conditions: Homo sapiens
# Source text: (§1) Among other things, provided technologies are useful for treating various diseases, disorders, or conditions. For example, in some embodiments, provided technologies are useful for treating cancer as confirmed in the present Example. […] In some embodiments, provided technologies can inhibit cell proliferation. In some embodiments, the present disclosure provides technologies for assessing various technologies, e.g., compounds, compositions, or methods. Among other things, the present Example provides technologies, e.g., cell growth inhibition assay, for assessing various technologies. […] In some embodiments, the following cell growth inhibition methods are utilized to assess provided technologies.
# SCLC: SCLC cell lines NCI-H1048 and NCI-H1876 were cultured in DMEM F12 media with 5% FBS, 1% Penicillin/Streptomycin and HITES supplement (Hydrocortisone, Insulin, Transferrin, Estradiol and Sodium Selenite). NCI-H1048 cells were plated at 10,000 cells/well of a 24-well plate and NCI-H1876 cells were plated at 20,000 cells/well of a 96-well plate. Compound and media were replenished every two days out to day 11 and 10 respectively. Cells were then trypsinized and counted using either hemocytometer or an automated Countess cell counter.
# (§2) In some assessments, for cell growth inhibition, cells, e.g., MOLM13, NCI-H1048, and LASCPC-01 cells, were counted using a hemocytometer or automated cell counting in triplicates. In some assessments, proliferation in NEPC organoids as measured with Cell Titer Glo reagent (Promega). Growth inhibition was determined relative to vehicle control.
# MOLM-13 cells = test: Cell growth inhibition, AML cell line MOLM-13 (CyQuant, day 7); format: cell-based; conditions: Homo sapiens
# Source text: as §1
# AML: AML cell line MOLM-13 cells were cultured in RPMI+15% FBS and were plated at 500 cells/well in 100 uL media in a U-bottom 96-well plate. Compounds were dilute to 3×final in full media and 50 uL were added to corresponding wells. Compound and media were replenished on days 2 and 5. On day 7, cells were transferred to a 96-well black bottom plate and CyQuant was performed per manufacturer's instructions.
# as §2
# KAT2A [1] = target: T1, KAT2A (Homo sapiens, UniProt Q92830); test: KAT2A degradation, Western Blot (Jess), MOLM-13 cells; format: cell-based; design: degrader, Western blot
# T1 sequence (Q92830 whole entry): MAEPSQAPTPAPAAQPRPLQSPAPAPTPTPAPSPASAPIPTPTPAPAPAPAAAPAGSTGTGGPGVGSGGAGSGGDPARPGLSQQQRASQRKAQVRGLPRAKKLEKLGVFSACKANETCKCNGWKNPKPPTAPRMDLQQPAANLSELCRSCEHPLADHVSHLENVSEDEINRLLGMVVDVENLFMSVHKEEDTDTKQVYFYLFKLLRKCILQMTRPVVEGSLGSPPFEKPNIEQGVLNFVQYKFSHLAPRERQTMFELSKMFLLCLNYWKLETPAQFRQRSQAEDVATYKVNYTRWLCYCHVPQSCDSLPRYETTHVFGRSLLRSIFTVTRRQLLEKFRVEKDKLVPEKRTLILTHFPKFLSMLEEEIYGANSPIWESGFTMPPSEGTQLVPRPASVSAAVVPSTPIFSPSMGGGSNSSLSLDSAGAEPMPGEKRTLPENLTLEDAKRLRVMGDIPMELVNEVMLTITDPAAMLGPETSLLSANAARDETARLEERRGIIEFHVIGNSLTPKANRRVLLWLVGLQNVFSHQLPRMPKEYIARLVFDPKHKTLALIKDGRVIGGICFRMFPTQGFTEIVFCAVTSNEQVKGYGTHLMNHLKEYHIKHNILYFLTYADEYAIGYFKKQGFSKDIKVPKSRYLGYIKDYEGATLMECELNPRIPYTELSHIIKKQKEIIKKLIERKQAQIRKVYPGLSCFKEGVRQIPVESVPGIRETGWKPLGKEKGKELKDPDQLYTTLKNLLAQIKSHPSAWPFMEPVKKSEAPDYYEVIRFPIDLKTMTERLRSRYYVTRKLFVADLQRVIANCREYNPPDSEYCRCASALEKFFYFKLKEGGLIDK
# In short: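 MOLM-13 cells in RPMI 1640/20% FBS were treated with compound for 24 h at 37 °C. RIPA lysates (4 μg) were run on a capillary Western (Jess) with anti-KAT2A antibody and chemiluminescent detection. DC50 comes from percent protein reduction versus DMSO control.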
# KAT2B [2] = target: T2, KAT2B (Homo sapiens, UniProt Q92831); test: KAT2B degradation, Western Blot (Jess), NCI-H1048 cells; format: cell-based; design: degrader, Western blot (Jess)
# T2 sequence (Q92831 whole entry): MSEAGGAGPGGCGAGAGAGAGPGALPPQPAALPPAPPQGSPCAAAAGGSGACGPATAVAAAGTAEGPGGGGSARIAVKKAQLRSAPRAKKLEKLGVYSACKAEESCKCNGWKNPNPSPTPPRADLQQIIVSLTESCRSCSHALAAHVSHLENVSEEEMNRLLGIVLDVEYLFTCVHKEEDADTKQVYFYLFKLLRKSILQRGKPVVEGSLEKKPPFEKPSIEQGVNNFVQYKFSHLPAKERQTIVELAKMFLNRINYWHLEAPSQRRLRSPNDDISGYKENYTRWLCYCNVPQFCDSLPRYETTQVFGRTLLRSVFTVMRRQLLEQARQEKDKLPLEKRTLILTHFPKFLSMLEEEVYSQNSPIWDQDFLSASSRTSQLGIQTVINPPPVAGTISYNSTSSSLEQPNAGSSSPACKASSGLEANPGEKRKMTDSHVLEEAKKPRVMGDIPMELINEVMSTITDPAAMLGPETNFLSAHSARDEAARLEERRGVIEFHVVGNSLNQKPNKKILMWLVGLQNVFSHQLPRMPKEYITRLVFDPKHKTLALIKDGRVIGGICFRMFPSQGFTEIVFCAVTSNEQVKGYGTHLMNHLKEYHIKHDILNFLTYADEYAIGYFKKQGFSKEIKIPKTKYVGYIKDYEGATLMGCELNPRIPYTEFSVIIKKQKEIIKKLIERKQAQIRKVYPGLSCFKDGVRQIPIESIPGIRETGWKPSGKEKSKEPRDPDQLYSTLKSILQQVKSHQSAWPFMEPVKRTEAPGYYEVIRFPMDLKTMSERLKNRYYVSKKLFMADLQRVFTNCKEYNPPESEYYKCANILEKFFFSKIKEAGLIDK
# In short: (§3)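 NCI-H1048 cells grown in HITES medium with 5% FBS were treated with compounds for 24 h at 37° C. Lysates were run by capillary Western (Jess) with KAT2A or KAT2B antibodies and chemiluminescent detection. DC50 derived from percent protein reduction versus DMSO control.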
# KAT2A [3] = target: T1, KAT2A; test: KAT2A degradation, Western Blot (Jess), NCI-H1048 cells; format: cell-based; design: degrader, Western blot (Jess)
# In short: as §3
# KAT2B [4] = target: T2, KAT2B; test: KAT2B degradation, Western Blot, MOLM-13 cells; format: cell-based; design: degrader, Western blot; conditions: MOLM-13, KAT2B
# Description: MOLM-13 cells were maintained at 37° C. in 5% CO2 and 90% humidity in RPMI 1640 supplemented with 20% fetal bovine serum (FBS) and 1× penicillin/streptomycin. Cells were plated in full media at 1-2 million cells/2 mL in a 6-well tissue culture treated plate with or without compounds for 24 h at 37° C. in 5% CO2.
# MOLM-13 cells or NCI-H1048 cells were washed with PBS, then lysed with RIPA buffer containing 1×protease and phosphatase inhibitors (SantaCruz Biotechnologies Cat #sc-24948A). Protein was isolated by centrifugation at 12,000×g for 10 minutes at 4° C. and supernatant was collected. Protein was quantified via Bradford assay. Samples were diluted to 4 μg lysate in 16 μL RIPA buffer and then 4 μL of Jess Sample Buffer. Samples were heated at 95° C. for 5 minutes. Samples were loaded onto 12-230 kDa Jess™ Separation Module, 8×25 capillary cartridges (SM-W004, Biotechne). Antibodies loaded were: Primary antibody for KAT2A (GCN5L2 (C26A10) Rabbit mAb (3305, CST)) and for KAT2B (PCAF (C14G9)) Rabbit mAb (3378, CST) at 1:1000 and Anti-Rabbit Detection Module for Jess™ (Cat No #DM-001, Biotechne). Signal was detected by chemiluminescence.
# DC50 values were determined from percent reduction of protein as compared to the DMSO control.
# [5] = 264 h, NCI-H1048, day 11, cell count, read-out: H1048 GI50
# [6] = 168 h, MOLM-13, day 7, CyQuant, read-out: MOLM13 GI50
# [7] = MOLM-13 cells, KAT2A, 24 h, Western Blot, vs DMSO, read-out: KAT2A MOLM-13 DC50
# [8] = NCI-H1048 cells, KAT2B, 24 h, Western Blot, vs DMSO, read-out: KAT2B NCI-H1048 DC50
# [9] = NCI-H1048 cells, KAT2A, 24 h, Western Blot, vs DMSO, read-out: KAT2A NCI-H1048 DC50
SMILES,GI50 (NCI-H1048 cells; [5]) [nM],GI50 (MOLM-13 cells; [6]) [nM],DC50 (KAT2A [1]; [7]) [nM],DC50 (KAT2B [2]; [8]) [nM],DC50 (KAT2A [3]; [9]) [nM],other results
CN1C[C@H](Nc2cnn(C)c(=O)c2Br)C[C@H](c2ccc(C(=O)N3CCN(Cc4ccc(C(=O)Nc5ccc6c(c5)CN(C5CCC(=O)NC5=O)C6=O)cc4)CC3)cc2)C1 (stereo partly shown) [Compound 2-15],2,5.2,,,,
Cc1cc(N2CCC3(CCN(C(=O)c4ccc([C@H]5C[C@@H](Nc6cnn(C)c(=O)c6Br)CN(C)C5)cc4)CC3)CC2)ccc1C1CCC(=O)NC1=O (stereo partly shown) [Compound 167],,4.8,< 1,< 1,< 1,
COc1cc(C2CCC(=O)NC2=O)ccc1N1CCC2(CCN(C(=O)c3ccc([C@H]4C[C@@H](Nc5cnn(C)c(=O)c5Br)CN(C)C4)cc3)CC2)CC1 (stereo partly shown) [Compound 238],60,20,,1 to 30,< 1,
"CN1C[C@H](Nc2cnn(C)c(=O)c2Br)C[C@H](c2ccc(C(=O)N(C)CCCN(C)c3ccc(CCCOc4cccc5c4C(=O)N(C4CCC(=O)NC4=O)C5=O)cc3)cc2)C1 (stereo partly shown) [Compound Ref-1, reference compound]",,,,,,"EC90 (KAT2B [4]; 24 h, read-out: DC90 (the source's name)): 1.8 nM; DC50 (KAT2B [4]): 0.075 nM; GI50 (NCI-H1048 cells; NCI-H1048, comparison table with Ref-1, read-out: Growth GI50): 32 nM; EC90 (KAT2A [1]; 24 h, MOLM-13, KAT2A, read-out: DC90 (the source's name)): 51 nM; DC50 (KAT2A [1]; MOLM-13, KAT2A, read-out: DC50): 2.2 nM; GI50 (MOLM-13 cells; MOLM-13, comparison table with Ref-1, read-out: Growth GI50): 60 nM; EC90 (KAT2B [2]; 24 h, NCI-H1048, KAT2B, read-out: DC90 (the source's name)): 1 nM; DC50 (KAT2B [2]; NCI-H1048, KAT2B, read-out: DC50): 0.1 nM; EC90 (KAT2A [3]; 24 h, NCI-H1048, KAT2A, read-out: DC90 (the source's name)): 16 nM; DC50 (KAT2A [3]; NCI-H1048, KAT2A, read-out: DC50): 1.5 nM"

# Continued, in another order:
GI50 (NCI-H1048 cells; [5]) [nM],GI50 (MOLM-13 cells; [6]) [nM],DC50 (KAT2A [1]; [7]) [nM],DC50 (KAT2B [2]; [8]) [nM],DC50 (KAT2A [3]; [9]) [nM],SMILES,other results
11,1.7,< 1,1 to 30,< 1,CN1C[C@H](Nc2cnn(C)c(=O)c2Br)C[C@H](c2ccc(CN3CCC(Oc4ccc(C5CCC(=O)NC5=O)cc4)CC3)cc2)C1 (stereo partly shown) [Compound 86],
1.5,0.9,< 1,< 1,< 1,"CN1C[C@H](Nc2cnn(C)c(=O)c2Br)C[C@H](c2ccc(C(=O)N3CCC4(CC3)CCN(c3ccc(C5CCC(=O)NC5=O)cc3)CC4)cc2)C1 (stereo partly drawn) [Compound 90, 3-[4-[3-[4-[(3R,5R)-5-[(5-bromo-1-methyl-6-oxo-pyridazin-4-yl)amino]-1-methyl-3-piperidyl]benzoyl]-3,9-diazaspiro[5.5]undecan-9-yl]phenyl]piperidine-2,6-dione]",
,0.9,< 1,< 1,< 1,"CN1C[C@H](Nc2cnn(C)c(=O)c2Br)C[C@H](c2ccc(C(=O)N3CCC4(CC3)CCN(c3ccc(C5CCC(=O)NC5=O)c(F)c3)CC4)cc2)C1 (stereo partly drawn) [Compound 157, 3-[4-[3-[4-[(3R,5R)-5-[(5-bromo-1-methyl-6-oxo-pyridazin-4-yl)amino]-1-methyl-3-piperidyl]benzoyl]-3,9-diazaspiro[5.5]undecan-9-yl]-2-fluoro-phenyl]piperidine-2,6-dione]",
